The values below come from patent US8455475B2 (Gruenenthal GmbH, priority 2009, dated 2013).

The experiment has as its target T1, rat B1R (bradykinin receptor 1) (Rattus norvegicus, UniProt P97583).
T1 construct: expressed in transfected cells; host or cells: CHO K1 cells
T1 sequence (P97583 1-337): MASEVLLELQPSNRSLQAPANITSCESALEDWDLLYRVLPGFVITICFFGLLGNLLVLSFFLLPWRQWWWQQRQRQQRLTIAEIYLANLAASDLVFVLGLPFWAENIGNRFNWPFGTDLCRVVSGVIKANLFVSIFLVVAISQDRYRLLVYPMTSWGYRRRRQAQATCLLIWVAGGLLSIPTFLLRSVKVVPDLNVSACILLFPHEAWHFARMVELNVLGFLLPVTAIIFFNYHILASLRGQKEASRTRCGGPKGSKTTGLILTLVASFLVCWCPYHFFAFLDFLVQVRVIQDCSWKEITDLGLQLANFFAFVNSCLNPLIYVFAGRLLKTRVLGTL
The experiment can be described thus: FLIPR Ca2+ assay (Fluo-4) on CHO K1 cells stably transfected with the B1R gene of the rat (rB1R cells): % inhibition at 10 μM / IC50, agonist Des-Arg9-bradykinin. Format: cell-based. The settings on record: CHO-K1, rat B1R. A digest of the protocol: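 Peak fluorescence counts read on FLIPR (λex 488, λem 540 nm) after two additions: compound first, then agonist at EC80 after 10–20 min. Human line challenged with Lys-Des-Arg9-bradykinin, rat line with Des-Arg9-bradykinin. Suppression of Ca2+ inflow expressed as % of maximum inhibition.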
A word on the inhibition: it is the change of the read-out against control, counted positive when it falls. For the compound `CN(C(=O)c1ccccc1Cl)C1CCc2ccc(C(=O)N3CCC4(CCN(C(=O)c5cc(C(C)(C)C)nn5C)CC4)C3)cc21` (stereo not shown) [IND_CC-593, N-[6-[8-(5-tert-Butyl-2-methyl-2H-pyrazole-3-carbonyl)-2,8-diazaspiro[4.5]-decane-2-carbonyl]-2,3-dihydro-1H-inden-1-yl]-2-chloro-N-methyl-benzamide], the inhibition at 10 µM turned out to be 50%.

Regarding `O=C(NC1CCc2ccc(C(=O)N3CCC4(CC3)CCN(C(=O)c3cnccn3)CC4)cc21)c1ccccc1Cl` (stereo not shown) [IND_CC-594, 2-Chloro-N-[6-[9-(pyrazine-2-carbonyl)-3,9-diazaspiro[5.5]undecane-3-carbonyl]-2,3-dihydro-1H-inden-1-yl]-benzamide], the inhibition at 10 µM came out at 91%.

On to `CSc1ncccc1C(=O)N1CCC2(CCN(C(=O)c3ccc4c(c3)C(NC(=O)c3ccccc3Cl)CC4)CC2)CC1` (stereo not shown) [IND_CC-595, 2-Chloro-N-[6-[9-(2-methylsulfanyl-pyridine-3-carbonyl)-3,9-diazaspiro[5.5]undecane-3-carbonyl]-2,3-dihydro-1H-inden-1-yl]-benzamide], for which the inhibition at 10 µM amounted to 91%.

Turning to `N#Cc1ccc(C(=O)N2CCC3(CC2)CCN(C(=O)c2ccc4c(c2)C(NC(=O)c2ccccc2Cl)CC4)CC3)cc1` (stereo not shown) [IND_CC-596, 2-Chloro-N-[6-[9-(4-cyano-benzoyl)-3,9-diazaspiro[5.5]undecane-3-carbonyl]-2,3-dihydro-1H-inden-1-yl]-benzamide], the inhibition at 10 µM stood at 94%.

Consider `O=C(NC1CCc2ccc(C(=O)N3CCC4(CC3)CCN(C(=O)C3CC3)CC4)cc21)c1ccccc1Cl` (stereo not shown) [IND_CC-597, 2-Chloro-N-[6-[9-(cyclopropanecarbonyl)-3,9-diazaspiro[5.5]undecane-3-carbonyl]-2,3-dihydro-1H-inden-1-yl]-benzamide], for which the inhibition at 10 µM turned out to be 101%.

`CC(C)(C)CC(=O)N1CCC2(CC1)CCN(C(=O)c1ccc3c(c1)C(NC(=O)c1ccccc1Cl)CC3)CC2` (stereo not shown) [IND_CC-598, 2-Chloro-N-[6-[9-(3,3-dimethyl-butanoyl)-3,9-diazaspiro[5.5]undecane-3-carbonyl]-2,3-dihydro-1H-inden-1-yl]-benzamide]: the inhibition at 10 µM was 96%.

Take `O=C(NC1CCc2ccc(C(=O)N3CCC4(CC3)CCN(C(=O)c3ccc(F)cc3Cl)CC4)cc21)c1ccccc1Cl` (stereo not shown) [IND_CC-599, 2-Chloro-N-[6-[9-(2-chloro-4-fluoro-benzoyl)-3,9-diazaspiro[5.5]undecane-3-carbonyl]-2,3-dihydro-1H-inden-1-yl]-benzamide]: the inhibition at 10 µM worked out at 96%.

As for `O=C(NC1CCc2ccc(C(=O)N3CCC4(CC3)CCN(C(=O)c3ccc(F)cc3F)CC4)cc21)c1ccccc1Cl` (stereo not shown) [IND_CC-600, 2-Chloro-N-[6-[9-(2,4-difluoro-benzoyl)-3,9-diazaspiro[5.5]undecane-3-carbonyl]-2,3-dihydro-1H-inden-1-yl]-benzamide], the inhibition at 10 µM came out at 100%.

With `Cn1nc(C(C)(C)C)cc1C(=O)N1CCC2(CCN(C(=O)c3ccc4c(c3)C(NC(=O)c3ccccc3Cl)CC4)CC2)CC1` (stereo not shown) [IND_CC-601, N-[6-[9-(5-tert-Butyl-2-methyl-2H-pyrazole-3-carbonyl)-3,9-diazaspiro-[5.5]undecane-3-carbonyl]-2,3-dihydro-1H-inden-1-yl]-2-chloro-benzamide], the inhibition at 10 µM came to 77%.

As for `Cc1cc(C(=O)N2CCC3(CCN(C(=O)c4ccc5c(c4)C(NC(=O)c4ccccc4Cl)CC5)CC3)CC2)n(C(C)(C)C)n1` (stereo not shown) [IND_CC-602, N-[6-[9-(2-tert-Butyl-5-methyl-2H-pyrazole-3-carbonyl)-3,9-diazaspiro-[5.5]undecane-3-carbonyl]-2,3-dihydro-1H-inden-1-yl]-2-chloro-benzamide], the inhibition at 10 µM came out at 95%.

Take `O=C(c1ccc2c(c1)C(N(C(=O)c1ccccc1Cl)C1CC1)CC2)N1CCC2(CCN(C(=O)C3CC3)CC2)C1` (stereo not shown) [IND_CC-603, 2-Chloro-N-[6-[8-(cyclopropanecarbonyl)-2,8-diazaspiro[4.5]decane-2-carbonyl]-2,3-dihydro-1H-inden-1-yl]-N-cyclopropyl-benzamide]: the inhibition at 10 µM is 75%.

With `CC(C)(C)CC(=O)N1CCC2(CC1)CCN(C(=O)c1ccc3c(c1)C(N(C(=O)c1ccccc1Cl)C1CC1)CC3)C2` (stereo not shown) [IND_CC-604, 2-Chloro-N-cyclopropyl-N-[6-[8-(3,3-dimethyl-butanoyl)-2,8-diazaspiro[4.5]decane-2-carbonyl]-2,3-dihydro-1H-inden-1-yl]-benzamide], the inhibition at 10 µM turned out to be 94%.

For `O=C(c1ccc2c(c1)C(N(C(=O)c1ccccc1Cl)C1CC1)CC2)N1CCC2(CCN(C(=O)c3ccc(F)cc3Cl)CC2)C1` (stereo not shown) [IND_CC-605, 2-Chloro-N-[6-[8-(2-chloro-4-fluoro-benzoyl)-2,8-diazaspiro[4.5]decane-2-carbonyl]-2,3-dihydro-1H-inden-1-yl]-N-cyclopropyl-benzamide], the inhibition at 10 µM came to 66%.

With `O=C(c1ccc2c(c1)C(N(C(=O)c1ccccc1Cl)C1CC1)CC2)N1CCC2(CCN(C(=O)c3ccc(F)cc3F)CC2)C1` (stereo not shown) [IND_CC-606, 2-Chloro-N-cyclopropyl-N-[6-[8-(2,4-difluoro-benzoyl)-2,8-diazaspiro[4.5]decane-2-carbonyl]-2,3-dihydro-1H-inden-1-yl]-benzamide], the inhibition at 10 µM turned out to be 66%.

For `Cn1nc(C(C)(C)C)cc1C(=O)N1CCC2(CCN(C(=O)c3ccc4c(c3)C(N(C(=O)c3ccccc3Cl)C3CC3)CC4)C2)CC1` (stereo not shown) [IND_CC-607, N-[6-[8-(5-tert-Butyl-2-methyl-2H-pyrazole-3-carbonyl)-2,8-diazaspiro[4.5]decane-2-carbonyl]-2,3-dihydro-1H-inden-1-yl]-2-chloro-N-cyclopropyl-benzamide], the inhibition at 10 µM was 67%.

`O=C(NC1CCc2ccc(C(=O)N3CCC4(CC3)CCN(S(=O)(=O)c3ccc(Cl)s3)CC4)cc21)c1ccccc1Cl` (stereo not shown) [IND_CC-608, 2-Chloro-N-[6-[9-[(5-chloro-thiophen-2-yl)sulfonyl]-3,9-diazaspiro[5.5]undecane-3-carbonyl]-2,3-dihydro-1H-inden-1-yl]-benzamide]: the inhibition at 10 µM stood at 102%.

With `O=C(NC1CCc2ccc(C(=O)N3CCC4(CC3)CCN(S(=O)(=O)c3ccc(F)cc3F)CC4)cc21)c1ccccc1Cl` (stereo not shown) [IND_CC-609, 2-Chloro-N-[6-[9-[(2,4-difluoro-phenyl)sulfonyl]-3,9-diazaspiro[5.5]undecane-3-carbonyl]-2,3-dihydro-1H-inden-1-yl]-benzamide], the inhibition at 10 µM is 101%.

`N#Cc1cc(S(=O)(=O)N2CCC3(CCN(C(=O)c4ccc5c(c4)C(NC(=O)c4ccccc4Cl)CC5)CC3)CC2)ccc1F` (stereo not shown) [IND_CC-610, 2-Chloro-N-[6-[9-[(3-cyano-4-fluoro-phenyl)sulfonyl]-3,9-diazaspiro[5.5]undecane-3-carbonyl]-2,3-dihydro-1H-inden-1-yl]-benzamide]: the inhibition at 10 µM turned out to be 103%.

As to `N#Cc1ccccc1S(=O)(=O)N1CCC2(CCN(C(=O)c3ccc4c(c3)C(NC(=O)c3ccccc3Cl)CC4)CC2)CC1` (stereo not shown) [IND_CC-611, 2-Chloro-N-[6-[9-[(2-cyano-phenyl)sulfonyl]-3,9-diazaspiro[5.5]undecane-3-carbonyl]-2,3-dihydro-1H-inden-1-yl]-benzamide], the inhibition at 10 µM was 98%.

For `Cn1ccc2c(S(=O)(=O)N3CCC4(CCN(C(=O)c5ccc6c(c5)C(NC(=O)c5ccccc5Cl)CC6)CC4)CC3)cccc21` (stereo not shown) [IND_CC-612, 2-Chloro-N-[6-[9-[(1-methyl-1H-indol-4-yl)sulfonyl]-3,9-diazaspiro[5.5]undecane-3-carbonyl]-2,3-dihydro-1H-inden-1-yl]-benzamide], the inhibition at 10 µM came to 65%.

With `CC(C)S(=O)(=O)N1CCC2(CCN(C(=O)c3ccc4c(c3)C(NC(=O)c3ccccc3Cl)CC4)CC2)CC1` (stereo not shown) [IND_CC-613, 2-Chloro-N-[6-[9-(isopropylsulfonyl)-3,9-diazaspiro[5.5]undecane-3-carbonyl]-2,3-dihydro-1H-inden-1-yl]-benzamide], the inhibition at 10 µM stood at 102%.

`Cn1ccc2cc(S(=O)(=O)N3CCC4(CCN(C(=O)c5ccc6c(c5)C(NC(=O)c5ccccc5Cl)CC6)CC4)CC3)ccc21` (stereo not shown) [IND_CC-614, 2-Chloro-N-[6-[9-[(1-methyl-1H-indol-5-yl)sulfonyl]-3,9-diazaspiro[5.5]undecane-3-carbonyl]-2,3-dihydro-1H-inden-1-yl]-benzamide]: the inhibition at 10 µM amounted to 67%.

For the compound `O=C(c1ccc2c(c1)C(N(C(=O)c1ccccc1Cl)C1CC1)CC2)N1CCC2(CCN(S(=O)(=O)c3ccc(Cl)s3)CC2)C1` (stereo not shown) [IND_CC-615, 2-Chloro-N-[6-[8-[(5-chloro-thiophen-2-yl)sulfonyl]-2,8-diazaspiro[4.5]-decane-2-carbonyl]-2,3-dihydro-1H-inden-1-yl]-N-cyclopropyl-benzamide], the inhibition at 10 µM was 67%.

With `O=C(c1ccc2c(c1)C(N(C(=O)c1ccccc1Cl)C1CC1)CC2)N1CCC2(CCN(S(=O)(=O)c3ccc(F)cc3F)CC2)C1` (stereo not shown) [IND_CC-616, 2-Chloro-N-cyclopropyl-N-[6-[8-[(2,4-difluoro-phenyl)sulfonyl]-2,8-diazaspiro[4.5]decane-2-carbonyl]-2,3-dihydro-1H-inden-1-yl]-benzamide], the inhibition at 10 µM stood at 81%.

As to `N#Cc1cc(S(=O)(=O)N2CCC3(CCN(C(=O)c4ccc5c(c4)C(N(C(=O)c4ccccc4Cl)C4CC4)CC5)C3)CC2)ccc1F` (stereo not shown) [IND_CC-617, 2-Chloro-N-[6-[8-[(3-cyano-4-fluoro-phenyl)sulfonyl]-2,8-diazaspiro[4.5]-decane-2-carbonyl]-2,3-dihydro-1H-inden-1-yl]-N-cyclopropyl-benzamide], the inhibition at 10 µM was 67%.
